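Five concentrations, 48 hours, 96-well plates. TGI is the concentration that stops growth completely.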
Legend:
Assay in all cases: NCI anticancer screen, dose series, 48 h
LOX IMVI melanoma = system: LOX IMVI melanoma
SN12C renal = system: SN12C renal
DLD-1 colon = system: DLD-1 colon
IGROV1 ovarian = system: IGROV1 ovarian
SF-539 CNS = system: SF-539 CNS
DMS 273 small cell lung = system: DMS 273 small cell lung
OVCAR-4 ovarian = system: OVCAR-4 ovarian
DMS 114 small cell lung = system: DMS 114 small cell lung
HOP-18 NSCLC = system: HOP-18 NSCLC
LXFL 529 NSCLC = system: LXFL 529 NSCLC
SNB-19 CNS = system: SNB-19 CNS
NCI-H460 lung = system: NCI-H460 lung
RPMI-8226 leukemia = system: RPMI-8226 leukemia
COLO 205 colon = system: COLO 205 colon
SNB-75 CNS = system: SNB-75 CNS
SK-OV-3 ovarian = system: SK-OV-3 ovarian
SK-MEL-28 melanoma = system: SK-MEL-28 melanoma
SNB-78 CNS = system: SNB-78 CNS
HL-60(TB) leukemia = system: HL-60(TB) leukemia
MOLT-4 leukemia = system: MOLT-4 leukemia
HCT-116 colon = system: HCT-116 colon
EKVX NSCLC = system: EKVX NSCLC
HCC-2998 colon = system: HCC-2998 colon
ACHN renal = system: ACHN renal
U251 CNS = system: U251 CNS
SF-295 CNS = system: SF-295 CNS
CCRF-CEM leukemia = system: CCRF-CEM leukemia
RXF 393 renal = system: RXF 393 renal
A549 NSCLC = system: A549 NSCLC
TK-10 renal = system: TK-10 renal
SW-620 colon = system: SW-620 colon
M14 melanoma = system: M14 melanoma
SF-268 CNS = system: SF-268 CNS
HOP-62 NSCLC = system: HOP-62 NSCLC
A498 renal = system: A498 renal
KM20L2 colon = system: KM20L2 colon
SK-MEL-2 melanoma = system: SK-MEL-2 melanoma
XF 498 CNS = system: XF 498 CNS
OVCAR-3 ovarian = system: OVCAR-3 ovarian
HCT-15 colon = system: HCT-15 colon
NCI-H23 lung = system: NCI-H23 lung
KM12 colon = system: KM12 colon
HT29 colon = system: HT29 colon
NCI-H226 lung = system: NCI-H226 lung
UACC-62 melanoma = system: UACC-62 melanoma
MALME-3M melanoma = system: MALME-3M melanoma
HOP-92 NSCLC = system: HOP-92 NSCLC
K-562 leukemia = system: K-562 leukemia
NCI-H522 lung = system: NCI-H522 lung
M19-MEL melanoma = system: M19-MEL melanoma
786-0 renal = system: 786-0 renal
UACC-257 melanoma = system: UACC-257 melanoma
UO-31 renal = system: UO-31 renal
OVCAR-8 ovarian = system: OVCAR-8 ovarian
OVCAR-5 ovarian = system: OVCAR-5 ovarian
CAKI-1 renal = system: CAKI-1 renal
SR leukemia = system: SR leukemia
SK-MEL-5 melanoma = system: SK-MEL-5 melanoma

Measured: TGI

O=C(Cn1cc(I)c(C(=O)NCC(O)CO)n1)NCC(O)CO (stereo not drawn)
not listed: OVCAR-5 ovarian | CAKI-1 renal | SR leukemia | SK-MEL-5 melanoma
> 100 µM: all other assays above

COc1ccc(/C=N/NC(=O)NCCNCCO)cc1
not listed: SNB-19 CNS | EKVX NSCLC | HCC-2998 colon | XF 498 CNS
> 100 µM: all other assays above
